# Laboratory results as given in patent publication US9266939B2, “Compositions comprising natriuretic peptides and methods of use thereof” (Alexion Pharmaceuticals, Inc., priority 2010, dated 2016).
# Where “and” joins values, the source holds several entries; their conditions need not be identical. Identical values can stand only once. Marks after values point to notes of the source that are not given here.
# System: wild-type (CD-1) mice
# Assay: Daily bolus SC injection of NC2st on bone growth in wild-type (CD-1) mice
# Type: in vivo
# Protocol: The study was designed to evaluate the relationship between different doses of NC2st and the pharmacologic response on bone. The relationship was evaluated by measuring the effect of increasing doses of NC2st (SEQ ID NO: 502; as described, e.g., in Example 1) on bone growth in wild-type (WT, CD-1) mice. Bone growth response of wild-type and Fgfr3^369/+ (ACH) mice was compared.
# CD-1 mice are a standard rodent species for use in pharmacodynamic studies. Briefly, nursing mothers with fostered female pups of 13 to 16 days were obtained. At the age of 21 days, pups were weaned and randomized based on body weight into treatment groups.
# The animals received NC2st as a subcutaneous injection into the interscapular region as described in Table 11 below.
# CD-1 mice were treated at 3 weeks old at the indicated doses for 35 consecutive days, followed by necropsy 24 hours after the last injection.
# Ex vivo radiographs of whole body, rib cage, and skull were taken using a Faxitron model MX-20 DC4 under constant conditions (26 kV, 10 sec at 1×, 3× and 3× magnification, respectively). Bone measurements were performed on the radiographic images of all animals in a blinded fashion using the software Image Processing and Analysis in Java (ImageJ).
# Bone samples were cleaned of excess tissue (not scraped) and fixed. Length of femur and tibia was measured using a caliper.
# [1] = day 36, Tx-10 (10 mg/kg SC once daily)
# [2] = day 36, Tx-30 (30 mg/kg SC once daily)
# [3] = day 36, Tx-100 (100 mg/kg SC once daily)
substance,measurement,setting,value
"NC2st: Fc-CNP fusion: Strep-tag II, TEV site, human IgG-1 Fc, 16-amino acid glycine-rich linker, CNP22; SEQ ID NO: 502",treatment time after which crown-rump length in vivo differed significantly from Vehicle,Tx-30,2 weeks
same,treatment time after which tail length in vivo differed significantly from Vehicle,Tx-30,2 weeks
same,treatment time after which tibia length in vivo differed significantly from Vehicle,Tx-30,4 weeks
same,treatment time after which crown-rump length in vivo differed significantly from Vehicle,Tx-100,2 weeks
same,treatment time after which tail length in vivo differed significantly from Vehicle,Tx-100,2 weeks
same,treatment time after which tibia length in vivo differed significantly from Vehicle,Tx-100,2 weeks
same,% Δ Cervical segment (X-Ray) compared to Vehicle,[1],8.8%
same,% Δ Circularity index (X-Ray) compared to Vehicle,[1],−1.9%
same,% Δ Crown-rump length in vivo compared to Vehicle,[1],4.4%
same,% Δ Foramen magnum height compared to Vehicle,[1],1.2%
same,% Δ Foramen magnum width compared to Vehicle,[1],1.3%
same,% Δ Left Femur length compared to Vehicle,[1],3.3%
same,% Δ Left Humerus length compared to Vehicle,[1],1.6%
same,% Δ Left Tibia length compared to Vehicle,[1],2.8%
same,% Δ Left Ulna length compared to Vehicle,[1],0.71%
same,% Δ Lumbar segment (X-Ray) compared to Vehicle,[1],6.2%
same,% Δ Metatarsal bone (3rd digit) (X-Ray) compared to Vehicle,[1],5.2%
same,% Δ Naso-anal length (X-Ray) compared to Vehicle,[1],6.5%
same,% Δ Occipital-front distance (X-Ray) compared to Vehicle,[1],1.4%
same,% Δ Right Tibia length in vivo compared to Vehicle,[1],1.1%
same,% Δ Sternum length (X-Ray) compared to Vehicle,[1],6.9%
same,% Δ Tail length in vivo compared to Vehicle,[1],6.1%
same,% Δ Thoracic segment (X-Ray) compared to Vehicle,[1],11.4%
same,% Δ Total CTL segments (X-Ray) compared to Vehicle,[1],8.9%
same,Cervical segment (X-Ray),[1],9.00 mm
same,Circularity index (X-Ray),[1],0.370
same,Crown-rump length in vivo,[1],99.1 mm
same,Foramen magnum height,[1],4.13 mm
same,Foramen magnum width,[1],4.72 mm
same,Left Femur length,[1],15.6* mm
same,Left Humerus length,[1],12.4 mm
same,Left Tibia length,[1],18.5 mm
same,Left Ulna length,[1],14.1 mm
same,Lumbar segment (X-Ray),[1],20.5* mm
same,Metatarsal bone (3rd digit) (X-Ray),[1],24.5* mm
same,Naso-anal length (X-Ray),[1],115* mm
same,Occipital-front distance (X-Ray),[1],42.9 mm
same,Right Tibia length in vivo,[1],19.0 mm
same,Sternum length (X-Ray),[1],38.5* mm
same,Tail length in vivo,[1],102 mm
same,Thoracic segment (X-Ray),[1],25.5* mm
same,Total CTL segments (X-Ray),[1],55.0* mm
same,Δ Cervical segment (X-Ray) compared to Vehicle,[1],0.73 mm
same,Δ Circularity index (X-Ray) compared to Vehicle,[1],−0.007
same,Δ Crown-rump length in vivo compared to Vehicle,[1],4.2 mm
same,Δ Foramen magnum height compared to Vehicle,[1],0.05 mm
same,Δ Foramen magnum width compared to Vehicle,[1],0.06 mm
same,Δ Left Femur length compared to Vehicle,[1],0.5 mm
same,Δ Left Humerus length compared to Vehicle,[1],0.2 mm
same,Δ Left Tibia length compared to Vehicle,[1],0.5 mm
same,Δ Left Ulna length compared to Vehicle,[1],0.10 mm
same,Δ Lumbar segment (X-Ray) compared to Vehicle,[1],1.2 mm
same,Δ Metatarsal bone (3rd digit) (X-Ray) compared to Vehicle,[1],1.2 mm
same,Δ Naso-anal length (X-Ray) compared to Vehicle,[1],7.0 mm
same,Δ Occipital-front distance (X-Ray) compared to Vehicle,[1],0.6 mm
same,Δ Right Tibia length in vivo compared to Vehicle,[1],0.20 mm
same,Δ Sternum length (X-Ray) compared to Vehicle,[1],2.5 mm
same,Δ Tail length in vivo compared to Vehicle,[1],5.9 mm
same,Δ Thoracic segment (X-Ray) compared to Vehicle,[1],2.6 mm
same,Δ Total CTL segments (X-Ray) compared to Vehicle,[1],4.5 mm
same,% Δ Cervical segment (X-Ray) compared to Vehicle,[2],13.8%
same,% Δ Circularity index (X-Ray) compared to Vehicle,[2],−4.0%
same,% Δ Crown-rump length in vivo compared to Vehicle,[2],7.5%
same,% Δ Foramen magnum height compared to Vehicle,[2],0.98%
same,% Δ Foramen magnum width compared to Vehicle,[2],1.5%
same,% Δ Left Femur length compared to Vehicle,[2],6.0%
same,% Δ Left Humerus length compared to Vehicle,[2],2.5%
same,% Δ Left Tibia length compared to Vehicle,[2],5.0%
same,% Δ Left Ulna length compared to Vehicle,[2],3.6%
same,% Δ Lumbar segment (X-Ray) compared to Vehicle,[2],9.3%
same,% Δ Metatarsal bone (3rd digit) (X-Ray) compared to Vehicle,[2],6.4%
same,% Δ Naso-anal length (X-Ray) compared to Vehicle,[2],9% and 9.3%
same,% Δ Occipital-front distance (X-Ray) compared to Vehicle,[2],1.2%
same,% Δ Right Tibia length in vivo compared to Vehicle,[2],3.2%
same,% Δ Sternum length (X-Ray) compared to Vehicle,[2],10.8%
same,% Δ Tail length in vivo compared to Vehicle,[2],10.3%
same,% Δ Thoracic segment (X-Ray) compared to Vehicle,[2],14.4%
same,% Δ Total CTL segments (X-Ray) compared to Vehicle,[2],12.3%
same,Cervical segment (X-Ray),[2],9.41* mm
same,Circularity index (X-Ray),[2],0.362
same,Crown-rump length in vivo,[2],102* mm
same,Foramen magnum height,[2],4.12 mm
same,Foramen magnum width,[2],4.73 mm
same,Left Femur length,[2],16.0* mm
same,Left Humerus length,[2],12.5* mm
same,Left Tibia length,[2],18.9* mm
same,Left Ulna length,[2],14.5 mm
same,Lumbar segment (X-Ray),[2],21.1* mm
same,Metatarsal bone (3rd digit) (X-Ray),[2],24.8* mm
same,Naso-anal length (X-Ray),[2],118* mm
same,Occipital-front distance (X-Ray),[2],42.8 mm
same,Right Tibia length in vivo,[2],19.4* mm
same,Sternum length (X-Ray),[2],39.9* mm
same,Tail length in vivo,[2],106* mm
same,Thoracic segment (X-Ray),[2],26.2* mm
same,Total CTL segments (X-Ray),[2],56.7* mm
same,Δ Cervical segment (X-Ray) compared to Vehicle,[2],1.14 mm
same,Δ Circularity index (X-Ray) compared to Vehicle,[2],−0.015
same,Δ Crown-rump length in vivo compared to Vehicle,[2],7.1 mm
same,Δ Foramen magnum height compared to Vehicle,[2],0.04 mm
same,Δ Foramen magnum width compared to Vehicle,[2],0.07 mm
same,Δ Left Femur length compared to Vehicle,[2],0.9 mm
same,Δ Left Humerus length compared to Vehicle,[2],0.3 mm
same,Δ Left Tibia length compared to Vehicle,[2],0.9 mm
same,Δ Left Ulna length compared to Vehicle,[2],0.5 mm
same,Δ Lumbar segment (X-Ray) compared to Vehicle,[2],1.8 mm
same,Δ Metatarsal bone (3rd digit) (X-Ray) compared to Vehicle,[2],1.5 mm
same,Δ Naso-anal length (X-Ray) compared to Vehicle,[2],10 mm
same,Δ Occipital-front distance (X-Ray) compared to Vehicle,[2],0.5 mm
same,Δ Right Tibia length in vivo compared to Vehicle,[2],0.60 mm
same,Δ Sternum length (X-Ray) compared to Vehicle,[2],3.9 mm
same,Δ Tail length in vivo compared to Vehicle,[2],9.9 mm
same,Δ Thoracic segment (X-Ray) compared to Vehicle,[2],3.3 mm
same,Δ Total CTL segments (X-Ray) compared to Vehicle,[2],6.2 mm
same,% Δ Cervical segment (X-Ray) compared to Vehicle,[3],20.3%
same,% Δ Circularity index (X-Ray) compared to Vehicle,[3],−7.4%
same,% Δ Crown-rump length in vivo compared to Vehicle,[3],12.7%
same,% Δ Foramen magnum height compared to Vehicle,[3],2.2%
same,% Δ Foramen magnum width compared to Vehicle,[3],1.3%
same,% Δ Left Femur length compared to Vehicle,[3],10% and 9.9%
same,% Δ Left Humerus length compared to Vehicle,[3],6% and 5.7%
same,% Δ Left Tibia length compared to Vehicle,[3],7% and 7.2%
same,% Δ Left Ulna length compared to Vehicle,[3],6% and 5.7%
same,% Δ Lumbar segment (X-Ray) compared to Vehicle,[3],13.5%
same,% Δ Metatarsal bone (3rd digit) (X-Ray) compared to Vehicle,[3],12.0%
same,% Δ Naso-anal length (X-Ray) compared to Vehicle,[3],13%
same,% Δ Occipital-front distance (X-Ray) compared to Vehicle,[3],2.1%
same,% Δ Right Tibia length in vivo compared to Vehicle,[3],6.4%
same,% Δ Sternum length (X-Ray) compared to Vehicle,[3],12.5%
same,% Δ Tail length in vivo compared to Vehicle,[3],16.5%
same,% Δ Thoracic segment (X-Ray) compared to Vehicle,[3],21.0%
same,% Δ Total CTL segments (X-Ray) compared to Vehicle,[3],17.8%
same,Cervical segment (X-Ray),[3],9.95* mm
same,Circularity index (X-Ray),[3],0.349*
same,Crown-rump length in vivo,[3],107* mm
same,Foramen magnum height,[3],4.17 mm
same,Foramen magnum width,[3],4.72 mm
same,Left Femur length,[3],16.6* mm
same,Left Humerus length,[3],12.9* mm
same,Left Tibia length,[3],19.3* mm
same,Left Ulna length,[3],14.8* mm
same,Lumbar segment (X-Ray),[3],21.9* mm
same,Metatarsal bone (3rd digit) (X-Ray),[3],26.1* mm
same,Naso-anal length (X-Ray),[3],122* mm
same,Occipital-front distance (X-Ray),[3],43.2* mm
same,Right Tibia length in vivo,[3],20.0* mm
same,Sternum length (X-Ray),[3],40.5* mm
same,Tail length in vivo,[3],112* mm
same,Thoracic segment (X-Ray),[3],27.7* mm
same,Total CTL segments (X-Ray),[3],59.5* mm
same,Δ Cervical segment (X-Ray) compared to Vehicle,[3],1.68 mm
same,Δ Circularity index (X-Ray) compared to Vehicle,[3],−0.028
same,Δ Crown-rump length in vivo compared to Vehicle,[3],12.1 mm
same,Δ Foramen magnum height compared to Vehicle,[3],0.09 mm
same,Δ Foramen magnum width compared to Vehicle,[3],0.06 mm
same,Δ Left Femur length compared to Vehicle,[3],1.5 mm
same,Δ Left Humerus length compared to Vehicle,[3],0.7 mm
same,Δ Left Tibia length compared to Vehicle,[3],1.3 mm
same,Δ Left Ulna length compared to Vehicle,[3],0.8 mm
same,Δ Lumbar segment (X-Ray) compared to Vehicle,[3],2.6 mm
same,Δ Metatarsal bone (3rd digit) (X-Ray) compared to Vehicle,[3],2.8 mm
same,Δ Naso-anal length (X-Ray) compared to Vehicle,[3],14 mm
same,Δ Occipital-front distance (X-Ray) compared to Vehicle,[3],0.9 mm
same,Δ Right Tibia length in vivo compared to Vehicle,[3],1.2 mm
same,Δ Sternum length (X-Ray) compared to Vehicle,[3],4.5 mm
same,Δ Tail length in vivo compared to Vehicle,[3],15.9 mm
same,Δ Thoracic segment (X-Ray) compared to Vehicle,[3],4.8 mm
same,Δ Total CTL segments (X-Ray) compared to Vehicle,[3],9.0 mm
